pKi: −log10 of the molar value.
Molecular target: Cell division control protein 42 homolog (Homo sapiens, UniProt P60953)
Assay: wild-type Cdc42 GTP-binding inhibitors, SAR follow-up, biochemical, bead-based multiplex flow cytometry, additional SAR set (AID 2022)

Chain of Cell division control protein 42 homolog (P60953 whole entry): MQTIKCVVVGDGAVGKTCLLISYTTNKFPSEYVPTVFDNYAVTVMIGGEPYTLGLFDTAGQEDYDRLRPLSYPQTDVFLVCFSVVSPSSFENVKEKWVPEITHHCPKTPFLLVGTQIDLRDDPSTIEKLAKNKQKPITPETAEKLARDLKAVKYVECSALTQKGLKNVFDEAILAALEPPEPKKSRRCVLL

Row | pKi | Structure (SMILES)
1 | 8.00 | O=C1Nc2c(Cl)cccc2C1=C1Nc2ccccc2C1=O
2 | 5.23 | O=C1N=c2c(F)cccc2=C1c1[nH]c2ccccc2c1NO [7-fluoro-3-[3-(hydroxyamino)-1H-indol-2-yl]-2-indolone]
